Molecules are shown by their SMILES.

For one experiment, the system named is HBV. The experiment in a line: HBV inhibition assay in HepAD38 cells (extracellular HBV DNA by direct qPCR). The class given is cell-based. The settings on record: Hepatitis B virus, 8-point dose-response curve, 96 hours, read-out: HBV inh EC50. In outline:
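HepAD38 cells (HepG2, tetracycline-off HBV) induced in tetracycline-free medium, treated 96 h at 37 °C with compound, 0.5% DMSO. Extracellular HBV DNA quantified by direct SYBR qPCR of lysed supernatant, as % of untreated; EC50 from 8-point 1:2 curves; cytotoxicity by CellTiter-Blue.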
(In general: Real-time PCR tracks product formation cycle by cycle.)
What is called EC50 is the midpoint of the concentration-response curve. Turning to `O=C(Nc1cc(F)c(F)c(F)c1)c1cc2c(cc1F)NCNS2(=O)=O` [Example E71, 6-fluoro-N-(3,4,5-trifluorophenyl)-3,4-dihydro-2H-benzo[e][1,2,4]thiadiazine-7-carboxamide 1,1-dioxide], the EC50 was below 1000 nM.

The same experiment, now with this note: Hepatitis B virus, compound at 0.1 µM, 96 hours, relative to non-treated reference, read-out: Anti HBV Activity (conc µM).
Take `O=C(Nc1cc(F)c(F)c(F)c1)c1ccc2c(c1)S(=O)(=O)N([C@H]1CCNC1)C(=O)N2` [Example E84, (S)-3-oxo-2-(pyrrolidin-3-yl)-N-(3,4,5-trifluorophenyl)-3,4-dihydro-2H-benzo[e][1,2,4]thiadiazine-7-carboxamide 1,1-dioxide]: the inhibition at 0.1 µM was below 50%. With `O=C(Nc1ccc(F)c(Cl)c1)c1ccc2c(c1)S(=O)(=O)N([C@H]1CC[C@H](O)CC1)C(=O)N2` [Example E123, N-(3-chloro-4-fluorophenyl)-2-((1r,4r)-4-hydroxycyclohexyl)-3-oxo-3,4-dihydro-2H-benzo[e][1,2,4]thiadiazine-7-carboxamide 1,1-dioxide], the inhibition at 0.1 µM was above 50%.

Still in this experiment, the particulars now being: Hepatitis B virus, compound at 0.5 µM, 96 hours, relative to non-treated reference, read-out: Anti HBV Activity (conc µM).
Take `O=C(Nc1cc(F)c(F)c(F)c1)c1ccc2c(c1)S(=O)(=O)N([C@H]1C[C@H](O)C1)C(=O)N2` [Example E125, Trans-2(3-hydroxycyclobutyl)-3-oxo-N-(3,4,5-trifluorophenyl)-3,4-dihydro-2H-benzo[e][1,2,4]thiadiazine-7-carboxamide 1,1-dioxide]: the inhibition at 0.5 µM is above 50%. As for `O=C(Nc1cc(F)c(F)c(F)c1)c1ccc2c(c1)S(=O)(=O)N[C@H]1CCC[C@@H]1N2` [Example E95, (3aS, 10aS)-N-(3,4,5-trifluorophenyl)-2,3,3a,4,10,10a-hexahydro-1H-benzo[f]cyclopenta[c][1,2,5]thiadiazepine-7-carboxamide 5,5-dioxide], the inhibition at 0.5 µM is below 50%. The same measure, in the same setting: then `O=C(Nc1cc(F)c(F)c(F)c1)c1ccc2c(c1)S(=O)(=O)NC1(N2)C(=O)Nc2ccccc21` (racemic) [Example E56, 2'-oxo-N-(3,4,5-trifluorophenyl)-2H,4H-spiro[benzo[e][1,2,4]thiadiazine-3,3'-indoline]-7-carboxamide 1,1-dioxide], with above 50%; and `CN1C(C(F)(F)F)Nc2ccc(C(=O)Nc3cc(F)c(F)c(F)c3)cc2S1(=O)=O` (stereo not shown) [Example E18, 2-methyl-3-(trifluoromethyl)-N-(3,4,5-trifluorophenyl)-3,4-dihydro-2H-benzo[e][1,2,4]thiadiazine-7-carboxamide1,1-dioxide], with below 50%. Same read-out and setting: in the case of `O=C(Nc1cc(F)c(F)c(F)c1)c1ccc2c(c1)S(=O)(=O)N(O)CN2` [Example E5, 2-hydroxy-N-(3,4,5-trifluorophenyl)-3,4-dihydro-2H-benzo[e][1,2,4]thiadiazine-7-carboxamide 1,1-dioxide] it was below 50%. For `O=C(Nc1cc(F)c(F)c(F)c1)c1ccc2c(c1)S(=O)(=O)N([C@H]1CC[C@H](O)CC1)CN2` [Example E58, trans-2-(4-hydroxycyclohexyl)-N-(3,4,5-trifluorophenyl)-3,4-dihydro-2H-benzo[e][1,2,4]thiadiazine-7-carboxamide 1,1-dioxide], the inhibition at 0.5 µM was below 50%. Consider `O=C(Nc1cc(F)c(F)c(F)c1)c1ccc2c(c1)S(=O)(=O)N1CCCC1N2` (stereo not shown) [Example E64, N-(3,4,5-trifluorophenyl)-2,3,10,10a-tetrahydro-1H-benzo[e]pyrrolo[1,2-b][1,2,4]thiadiazine-7-carboxamide 5,5-dioxide], for which the inhibition at 0.5 µM is below 50%. In the case of `O=C(Nc1cc(F)c(F)c(F)c1)c1ccc2c(c1)S(=O)(=O)N(C1CC=C(CO)CC1)C(=O)N2` (stereo not shown) [Example E134, 2-(4-(hydroxymethyl)cyclohex-3-en-1-yl)-3-oxo-N-(3,4,5-trifluorophenyl)-3,4-dihydro-2H-benzo[e][1,2,4]thiadiazine-7-carboxamide 1,1-dioxide], the inhibition at 0.5 µM is above 50%. Consider `O=C(Nc1cc(F)c(F)c(F)c1)c1ccc2c(c1)S(=O)(=O)N([C@H]1CC[C@@H](O)CC1)C(=O)N2` [Example E87, cis-2-(4-hydroxycyclohexyl)-3-oxo-N-(3,4,5-trifluorophenyl)-3,4-dihydro-2H-benzo[e][1,2,4]thiadiazine-7-carboxamide 1,1-dioxide], for which the inhibition at 0.5 µM is above 50%.

The experiment is the same for the next values; noted with them: Hepatitis B virus, compound at 1 µM, 96 hours, relative to non-treated reference, read-out: Anti HBV Activity (conc µM).
Turning to `O=C(Nc1cc(F)c(F)c(F)c1)c1ccc2c(c1)S(=O)(=O)N[C@H]1CCC[C@H]1N2` [Example E137, (3aS,10aR)-N-(3,4,5-trifluorophenyl)-2,3,3a,4,10,10a-hexahydro-1H-benzo[f]cyclopenta[c][1,2,5]thiadiazepine-7-carboxamide 5,5-dioxide], the inhibition at 1 µM is below 50%. On to `CN1CNS(=O)(=O)c2cc(C(=O)Nc3cc(F)c(F)c(F)c3)ccc21` [Example E3, 4-methyl-N-(3,4,5-trifluorophenyl)-3,4-dihydro-2H-benzo[e][1,2,4]thiadiazine-7-carboxamide 1,1-dioxide], for which the inhibition at 1 µM is below 50%.

For the molecule `O=C(Nc1ccc(F)c(F)c1)c1ccc2c(c1)S(=O)(=O)N1CCN2CC1` [Example E110, N-(3,4-difluorophenyl)-3,4-dihydro-2,5-ethanobenzo[f][1,2,5]thiadiazepine-8-carboxamide 1,1-dioxide], the inhibition at 1 µM was below 50%.

`O=C(Nc1cc(F)c(F)c(F)c1)c1ccc2c(c1)S(=O)(=O)Nc1ncnn1-2` [Example E138, N-(3,4,5-trifluorophenyl)-4H-benzo[e][1,2,4]triazolo[5,1-c][1,2,4]thiadiazine-7-carboxamide 5,5-dioxide]: the inhibition at 1 µM was below 50%. Regarding `CC1(C)Nc2ccc(C(=O)Nc3ccc(F)c(F)c3)cc2S(=O)(=O)N1` [Example E120, N-(3,4-difluorophenyl)-3,3-dimethyl-3,4-dihydro-2H-benzo[e][1,2,4]thiadiazine-7-carboxamide 1,1-dioxide], the inhibition at 1 µM was above 50%. Still for that read-out and setting: then `O=C(Nc1cc(F)c(F)c(F)c1)c1ccc2c(c1)S(=O)(=O)NC(c1ccc(Cl)nc1)N2` (stereo not shown) [Example E52, 3-(6-chloropyridin-3-yl)-N-(3,4,5-trifluorophenyl)-3,4-dihydro-2H-benzo[e][1,2,4]thiadiazine-7-carboxamide 1,1-dioxide], with above 50%; and `O=C(Nc1cc(F)c(F)c(F)c1)c1ccc2c(c1)S(=O)(=O)NC(c1ccc(C(F)(F)F)nc1)N2` (stereo not shown) [Example E42, 3-(6-(trifluoromethyl)pyridin-3-yl)-N-(3,4,5-trifluorophenyl)-3,4-dihydro-2H-benzo[e][1,2,4]thiadiazine-7-carboxamide 1,1-dioxide], with above 50%. For the molecule `O=C(Nc1cc(F)c(F)c(F)c1)c1ccc2c(c1)S(=O)(=O)N(CCO)CN2` [Example E62, 2-(2-hydroxyethyl)-N-(3,4,5-trifluorophenyl)-3,4-dihydro-2H-benzo[e][1,2,4]thiadiazine-7-carboxamide 1,1-dioxide], the inhibition at 1 µM was below 50%. Still for that read-out and setting: in the case of `CC(C)(C)OC(=O)N1CCC(C2Nc3ccc(C(=O)Nc4cc(F)c(F)c(F)c4)cc3S(=O)(=O)N2)CC1` (stereo not shown) [Example E31, tert-butyl 4-(1,1-dioxido-7-((3,4,5-trifluorophenyl)carbamoyl)-3,4-dihydro-2H-benzo[e] [1,2,4]thiadiazin-3-yl)piperidine-1-carboxylate] it was above 50%; in that of `Cc1cc(C(=O)Nc2cc(F)c(F)c(F)c2)cc2c1NC(c1nccs1)NS2(=O)=O` (stereo not shown) [Example E89, 5-methyl-3-(thiazol-2-yl)-N-(3,4,5-trifluorophenyl)-3,4-dihydro-2H-benzo[e][1,2,4]thiadiazine-7-carboxamide 1,1-dioxide], above 50%; in that of `O=C(Nc1cc(F)c(F)c(F)c1)c1ccc2c(c1)S(=O)(=O)NC(c1cscn1)N2` (stereo not shown) [Example E41, 3-(thiazol-4-yl)-N-(3,4,5-trifluorophenyl)-3,4-dihydro-2H-benzo[e][1,2,4]thiadiazine-7-carboxamide 1,1-dioxide], above 50%.

Take `O=C(Nc1cc(F)c(F)c(F)c1)c1ccc2c(c1)S(=O)(=O)NC(C(F)F)N2` (stereo not shown) [Example E17, 3-(difluoromethyl)-N-(3,4,5-trifluorophenyl)-3,4-dihydro-2H-benzo[e][1,2,4]thiadiazine-7-carboxamide1,1-dioxide]: the inhibition at 1 µM was above 50%. Still for that read-out and setting: in the case of `O=C(Nc1cc(F)c(F)c(F)c1)c1ccc2c(c1)S(=O)(=O)N1CCNCC1CO2` (stereo not shown) [Example E115, N-(3,4,5-trifluorophenyl)-1,2,3,4,12,12a-hexahydrobenzo[b]pyrazino[1,2-e][1,4,5]oxathiazepine-8-carboxamide 6,6-dioxide] it was below 50%. Still for that read-out and setting: then `O=C(Nc1cc(F)c(F)c(F)c1)c1ccc2c(c1)S(=O)(=O)N1CCCC[C@@H]1CN2` [Example E104, (R)-N-(3,4,5-trifluorophenyl)-1,3,4,11,12,12a-hexahydro-2H-benzo[f]pyrido[1,2-b][1,2,5]thiadiazepine-8-carboxamide 6,6-dioxide], with above 50%; and `O=C(Nc1ccc(F)c(F)c1)c1ccc2c(c1)S(=O)(=O)NC(c1cccnc1)N2` (stereo not shown) [Example E47, N-(3,4-difluorophenyl)-3-(pyridin-3-yl)-3,4-dihydro-2H-benzo[e][1,2,4]thiadiazine-7-carboxamide 1,1-dioxide], with above 50%.

Staying with this experiment, now noted: compound at 1 µM, 96 hours, relative to non-treated reference.
For the molecule `CN1CCC(N2C(=O)Nc3ccc(C(=O)Nc4cc(F)c(F)c(F)c4)cc3S2(=O)=O)CC1` [Example E133, 2-(1-methylpiperidin-4-yl)-3-oxo-N-(3,4,5-trifluorophenyl)-3,4-dihydro-2H-benzo[e][1,2,4]thiadiazine-7-carboxamide 1,1-dioxide], the “Anti HBV Activity (conc µM)” value is “A (1) (HBV inhibition greater than 50% at the concentration indicated in the table)”.

The values are drawn from patent EP3597653A1, “CYCLIC INHIBITORS OF HEPATITIS B VIRUS” (IRBM S.P.A., priority 2018, dated 2020).
